Measured values published in patent US20250290117A1, “MOLECULAR PHENOTYPIC ANTIMICROBIAL SUSCEPTIBILITY TESTING” (priority 2024, published 2025).

Tested on: pathogens of clinical samples
Assay: Molecular phenotypic antimicrobial susceptibility test of clinical samples, extraction DNA purification step prior to PCR (Table 6)
Assay type: cell-based
Protocol: Detection of Molecular Phenotypic Antimicrobial Susceptibility. Disclosed herein are the methods for the detection of phenotypic antimicrobial susceptibility via molecular methods. The present invention describes how a specimen 100 with a known microbial load is incubated and then exposed to a panel of antimicrobial agents to determine sensitivity (prevention of growth) or resistance (allowance of growth) to the specific antimicrobial agents tested utilizing molecular methods.
Sample Collection. Specimens 100 are collected from patients using sterile collection processes that are employed in routine clinical care. Specimens are transported to the testing facility in boric acid preservative.
Preparation of the Specimens for Testing. […] The process for pathogen isolation includes steps of harvesting the pathogen (e.g., via centrifugation), isolating pathogen DNA via a DNA isolation and/or purification kit, and performing PCR on the pathogen DNA via PCR components (e.g., primers, enzymes, buffers) as would be known to the skilled artisan. […] This aliquot is used for antimicrobial susceptibility testing if indicated based on the pathogen detection results. […] Specimens 100 with lower pathogen loads could also be utilized in the antibiotic susceptibility phase of testing with or without a longer incubation period.
Preparation of Antimicrobial Susceptibility Testing Plates. Antimicrobial solutions are prepared at known concentrations. The specific antimicrobials and their concentrations are selected based on the pathogen of interest and the described antimicrobial resistance breakpoints for that specimen pathogen and antimicrobial combination. These antimicrobials have been selected based on those commonly utilized by healthcare providers in routine clinical care for the specific type of suspected infection. The number and types of antimicrobials utilized can be customized based on the infection source, pathogen detected, patient-specific factors such as allergies or other health conditions (e.g., chronic kidney disease or concurrent medication use), or healthcare provider preferences such as antimicrobial availability or cost.
The antimicrobial solutions are prepared in liquid culture media (such as Muller Hinton Broth) to achieve the desired antimicrobial concentration and are then stored at −80° C. until use. For a given specimen, each antimicrobial is tested at a single or multiple antimicrobial concentration(s) which is its established breakpoints for sensitivity. The antimicrobial solutions are prepared and plated out for each specific pathogen. […] This allows for evaluation of pathogen load when no antimicrobial is present.
Specimen Exposure to Antimicrobial Agents. The 1 mL aliquot of the specimen 100 previously mixed with culture media and incubated is obtained. Using optical density measurements as a guide, the specimen 100 is diluted to 0.5 McFarland.
Antimicrobial exposure plates are typically placed into an incubator for 12-16 hours.
Nucleic Acid Amplification of Antimicrobial Agent Exposed Pathogens. The antimicrobial exposure plate is removed after the period of incubation. The specimen then undergoes a purification or lysis step. For example, the specimen may undergo a purification step (e.g., magnetic bead-based or other separation protocol to isolate genetic material). In another example, the specimen may undergo a cell lysis step. For example, buffer (e.g., lysis buffer) may be added and incubated in the thermal cycler for preparation for direct PCR. Next, the specimen may undergo a polymerase chain reaction (PCR) testing protocol, whereby a semi-quantitative PCR method is utilized. This may be completed either with or without a specific extraction protocol step. The pathogens can be individually targeted and detected, or a universal genetic sequence can be utilized to detect the antimicrobial susceptibility of the specimen as a whole.

CN[C@H](CC(C)C)C(=O)N[C@H]1C(=O)N[C@@H](CC(N)=O)C(=O)N[C@H]2C(=O)N[C@H]3C(=O)N[C@H](C(=O)N[C@H](C(=O)O)c4cc(O)cc(O)c4-c4cc3ccc4O)[C@H](O)c3ccc(c(Cl)c3)Oc3cc2cc(c3O[C@@H]2O[C@H](CO)[C@@H](O)[C@H](O)[C@H]2O[C@H]2C[C@](C)(N)[C@H](O)[C@H](C)O2)Oc2ccc(cc2Cl)[C@H]1O [Vancomycin]
Molecular Antibiotic Susceptibility Result (E. faecalis, clinical sample of r93-r99): Sensitive (Antimicrobial wells with pathogen load detected below the control wells (typically >2 cycle thresholds later) may be reported as Sensitive) | Molecular Antibiotic Susceptibility Result (E. faecalis, clinical sample of r100-r106): sensitive | Ct (E. faecalis, clinical sample of r100-r106, Ct Control Avg 23.073): 37.981 | Molecular Antibiotic Susceptibility Result (E. faecalis, clinical sample of r107-r113): sensitive | Ct (E. faecalis, clinical sample of r107-r113, Ct Control Avg 22.144): 32.184 | Molecular Antibiotic Susceptibility Result (E. faecalis, clinical sample of r114-r120): Sensitive (Antimicrobial wells with pathogen load detected below the control wells (typically >2 cycle thresholds later) may be reported as Sensitive) | Ct (E. faecalis, clinical sample of r114-r120, Ct Control Avg 20.822): 34.122 | Molecular Antibiotic Susceptibility Result (E. faecalis, clinical sample of r151-r157): Sensitive (Antimicrobial wells with pathogen load detected below the control wells (typically >2 cycle thresholds later) may be reported as Sensitive) | Ct (E. faecalis, clinical sample of r151-r157, Ct Control Avg 20.56): Undet | Molecular Antibiotic Susceptibility Result (S. aureus, clinical sample of r85-r92): Resistant
